Reference: patent US9475824B2, “Fused pyrimidines as inhibitors of p97 complex” (Cleave Biosciences, Inc., priority 2012, dated 2016)

Biological target: p97 (Homo sapiens, UniProt P55072)
Assay: P97 ATPase biochemical assay (ADP Glo)
Conditions: 20 nM p97, 20 μM ATP, 37° C. 15 minutes
Experimental: The ATPase assay is performed according the following protocol: Purified enzyme (20 nM p97), substrate (20 μM ATP) and a dose titration of compounds are mixed in buffer (50 mM TRIS pH 7.5, 20 mM MgCl2, 0.02% TX-100, 1 mM DTT, 0.2% (v/v) glycerol) and incubated at 37° C. for 15 minutes. The reaction is terminated and the level of product generated is measured using the ADP Glo Assay Kit (Promega, Madison Wis.). Plotting product generated versus compound concentration and using a four-parameter fit model generates an IC50 value for each compounds.
The p97 assay is an initial screening assay used to determine inhibitory activity of the fused pyrimidine compounds of the invention against the p97 complex. As discussed above, inhibition of activity of the p97 proteosome complex can enable apoptosis and cause elimination of neoplastic cells (cancer cells). The method follows that of Christianson in Nat.
Assay Buffer is a mixture of 50 mM TRIS pH 7.5, 20 mM MgCl2, 0.02% TX-100, 1 mM DTT and 0.2% (v/v) Glycerol. […] The identification kit is an ADP glo kit (Promega): stop buffer, detection reagent.
0.5 μL compound serial diluted in DMSO (Final Conc. 10%)
2 μL ATP (Final Conc.=20 uM, diluted in assay buffer)
2.5 μL p97 (Final Conc.=20 nM, diluted in assay buffer)
Incubate at 37 degC for 15 min.
Add 5 μL of stop buffer, incubate at RT for 40 min.
Add 10 μL of detection reagent, incubate at RT for 30 min.
Read luminescence on Envision plate reader.
Plot normalized luminescence data against log-transformed concentration values and fit to a sigmoidal curve to determine IC50 values (done in Collaborative Drug Discovery software).

Chain of p97 (P55072 whole entry): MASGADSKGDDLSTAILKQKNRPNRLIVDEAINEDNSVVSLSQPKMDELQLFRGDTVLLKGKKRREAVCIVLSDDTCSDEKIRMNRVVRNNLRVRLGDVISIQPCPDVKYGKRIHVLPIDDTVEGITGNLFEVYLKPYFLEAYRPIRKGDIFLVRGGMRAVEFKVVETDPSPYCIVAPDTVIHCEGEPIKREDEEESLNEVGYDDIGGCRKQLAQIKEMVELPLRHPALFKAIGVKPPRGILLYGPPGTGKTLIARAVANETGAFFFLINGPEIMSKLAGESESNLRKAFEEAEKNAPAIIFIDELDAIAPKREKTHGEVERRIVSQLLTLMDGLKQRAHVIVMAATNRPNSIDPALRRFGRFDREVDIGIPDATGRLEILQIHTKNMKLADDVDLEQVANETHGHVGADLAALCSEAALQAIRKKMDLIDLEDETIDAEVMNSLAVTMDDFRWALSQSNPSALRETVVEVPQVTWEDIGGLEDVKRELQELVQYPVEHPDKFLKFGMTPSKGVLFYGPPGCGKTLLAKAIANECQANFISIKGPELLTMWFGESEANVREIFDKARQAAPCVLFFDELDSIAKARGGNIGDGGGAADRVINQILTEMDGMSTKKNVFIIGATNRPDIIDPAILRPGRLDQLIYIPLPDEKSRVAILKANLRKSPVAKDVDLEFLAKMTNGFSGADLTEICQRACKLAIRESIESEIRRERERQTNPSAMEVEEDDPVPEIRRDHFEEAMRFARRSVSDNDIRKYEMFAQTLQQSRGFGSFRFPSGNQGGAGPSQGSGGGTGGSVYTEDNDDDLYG

| SMILES | IC50 [µM] |
| --- | --- |
| COc1cccc2c(NCc3ccccc3)nc(-n3c(OC)nc4ccccc43)nc12 [compound 1, N-benzyl-8-methoxy-2-(2-methoxy-1H-1,3-benzodiazol-1-yl)quinazolin-4-amine] | < 0.1 |
| Cc1cc2ccccc2n1-c1nc(NCc2ccccc2)c2cccc(CN)c2n1 [compound 2, 8-(aminomethyl)-N-benzyl-2-(2-methyl-1H-indol-1-yl)quinazolin-4-amine] | < 1 |
| COc1nc2ccccc2n1-c1nc(NCc2ccccc2)c2ncsc2n1 [compound 4, N-benzyl-5-(2-methoxy-1H-1,3-benzodiazol-1-yl)-[1,3]thiazolo[5,4-d]pyrimidin-7-amine] | < 0.1 |
| COc1cccc2c(NCc3ccccc3)nc(-n3c(C)cc4ccccc43)nc12 [compound 8, N-benzyl-8-methoxy-2-(2-methyl-1H-indol-1-yl)quinazolin-4-amine] | < 0.1 |
| Cc1cc2ccccc2n1-c1nc2c(c(NCc3ccccc3)n1)CNCC2 [compound 10, N-benzyl-2-(2-methyl-1H-indol-1-yl)-5H,6H,7H,8H-pyrido[4,3-d]pyrimidin-4-amine] | < 0.3 |
| Cc1cc2ccccc2n1-c1nc2c(c(NCc3ccccc3)n1)CCNC2 [compound 11, N-benzyl-2-(2-methyl-1H-indol-1-yl)-5H,6H,7H,8H-pyrido[3,4-d]pyrimidin-4-amine] | < 0.3 |
| COc1cccc2c(NCc3ccccc3)nc(-n3c(CN)cc4ccccc43)nc12 [compound 15, 2-[2-(aminomethyl)-1H-indol-1-yl]-N-benzyl-8-methoxyquinazolin-4-amine] | < 0.1 |
| COc1cccc2c(NCc3ccccc3)nc(-c3c(C)oc4ccccc34)nc12 [compound 16, N-benzyl-8-methoxy-2-(2-methyl-1-benzofuran-3-yl)quinazolin-4-amine] | < 1 |
| Cc1cc2ccccc2n1-c1nc(NCc2ccccc2)c2cccc(C(N)=O)c2n1 [compound 17, 4-(benzylamino)-2-(2-methyl-1H-indol-1-yl)quinazoline-8-carboxamide] | < 0.3 |
| Cc1cc2ccccc2n1-c1nc2c(c(NCc3ccccc3)n1)COC2 [compound 18, N-benzyl-2-(2-methyl-1H-indol-1-yl)-5H,7H-furo[3,4-d]pyrimidin-4-amine] | < 0.3 |
| Cc1cc2ccccc2n1-c1nc(NCc2ccccc2)c2cccc(C#N)c2n1 [compound 19, 4-(benzylamino)-2-(2-methyl-1H-indol-1-yl)quinazoline-8-carbonitrile] | < 1 |
| CC(=O)N1CCc2c(nc(-n3c(C)cc4ccccc43)nc2NCc2ccccc2)C1 [compound 20, 1-[4-(benzylamino)-2-(2-methyl-1H-indol-1-yl)-5H,6H,7H,8H-pyrido[3,4-d]pyrimidin-7-yl]ethan-1-one] | < 0.1 |
| CC(N)c1cc2ccccc2n1-c1nc2c(c(NCc3ccccc3)n1)CCCC2 (stereo not drawn) [compound 22, 2-[2-(1-aminoethyl)-1H-indol-1-yl]-N-benzyl-5,6,7,8-tetrahydroquinazolin-4-amine] | < 1 |
| COCCOc1cccc2c(NCc3ccccc3)nc(-n3c(CN)cc4ccccc43)nc12 [compound 23] | < 0.3 |
| Cc1cc2c(F)cccc2n1-c1nc2c(c(NCc3ccccc3)n1)CNCC2 [compound 41, N-benzyl-2-(4-fluoro-2-methyl-1H-indol-1-yl)-5H,6H,7H,8H-pyrido[4,3-d]pyrimidin-4-amine] | < 0.3 |
| COc1cccc2c1cc(C)n2-c1nc2c(c(NCc3ccccc3)n1)CNCC2 [compound 43] | < 1 |
| CCN1CCc2nc(-n3c(C)cc4ccccc43)nc(NCc3ccccc3)c2C1 [compound 63, N-benzyl-6-ethyl-2-(2-methyl-1H-indol-1-yl)-5H,6H,7H,8H-pyrido[4,3-d]pyrimidin-4-amine] | < 1 |
| CCCN1CCc2nc(-n3c(C)cc4ccccc43)nc(NCc3ccccc3)c2C1 [compound 65, N-benzyl-2-(2-methyl-1H-indol-1-yl)-6-propyl-5H,6H,7H,8H-pyrido[4,3-d]pyrimidin-4-amine] | < 1 |

| SMILES | IC50 [µM] |
| --- | --- |
| Cc1nc2c(C(N)=O)cccc2n1-c1nc2c(c(NCc3ccccc3)n1)CNCC2 [compound 83, 1-[4-(benzylamino)-5H,6H,7H,8H-pyrido[4,3-d]pyrimidin-2-yl]-2-methyl-1H-1,3-benzodiazole-4-carboxamide] | < 1 |
| NCc1cc2c(C(N)=O)cccc2n1-c1nc2c(c(NCc3ccccc3)n1)COCC2 [compound 86, 2-(aminomethyl)-1-[4-(benzylamino)-5H,7H,8H-pyrano[4,3-d]pyrimidin-2-yl]-1H-indole-4-carboxamide] | < 0.1 |
| N#Cc1cccc2c1nc(CN)n2-c1nc2c(c(NCc3ccccc3)n1)CCCC2 [compound 87, 2-(aminomethyl)-1-[4-(benzylamino)-5,6,7,8-tetrahydroquinazolin-2-yl]-1H-1,3-benzodiazole-4-carbonitrile] | < 1 |
| COCCOc1cccc2c(NCc3ccccc3)nc(-n3c(CN)nc4c(C(N)=O)cccc43)nc12 [compound 88, 2-(aminomethyl)-1-[4-(benzylamino)-8-(2-methoxyethoxy)quinazolin-2-yl]-1H-1,3-benzodiazole-4-carboxamide] | < 1 |
| Oc1nc2ccccc2n1-c1nc2c(c(NCc3ccccc3)n1)CCCC2 [compound 89, 1-[4-(benzylamino)-5,6,7,8-tetrahydroquinazolin-2-yl]-1H-1,3-benzodiazol-2-ol] | < 1 |
| COc1cc2c(C(N)=O)cccc2n1-c1nc2c(c(NCc3ccccc3)n1)CNCC2 [compound 92, 1-[4-(benzylamino)-5H,6H,7H,8H-pyrido[4,3-d]pyrimidin-2-yl]-2-methoxy-1H-indole-4-carboxamide] | < 1 |
| CN(C)Cc1cc2c(C(N)=O)cccc2n1-c1nc2c(c(NCc3ccccc3)n1)COCC2 [compound 95, 1-[4-(benzylamino)-5H,7H,8H-pyrano[4,3-d]pyrimidin-2-yl]-2-[(dimethylamino)methyl]-1H-indole-4-carboxamide] | < 1 |
| Cc1cc2c(C(=O)NC(C)C)cccc2n1-c1nc2c(c(NCc3ccccc3)n1)COCC2 [compound 99, 1-[4-(benzylamino)-5H,7H,8H-pyrano[4,3-d]pyrimidin-2-yl]-2-methyl-N-(propan-2-yl)-1H-indole-4-carboxamide] | < 1 |
| Cc1cc2c(C(=O)NCCN(C)C)cccc2n1-c1nc2c(c(NCc3ccccc3)n1)COCC2 [compound 102, 1-[4-(benzylamino)-5H,7H,8H-pyrano[4,3-d]pyrimidin-2-yl]-N-[2-(dimethylamino)ethyl]-2-methyl-1H-indole-4-carboxamide] | < 1 |
| COc1nc2c(C(=O)O)cccc2n1-c1nc2c(c(NCc3ccccc3)n1)CCCC2 [compound 116, 1-[4-(benzylamino)-5,6,7,8-tetrahydroquinazolin-2-yl]-2-methoxy-1H-1,3-benzodiazole-4-carboxylic acid] | < 0.03 |
| Cc1cc2c(C(=O)O)cccc2n1-c1nc2c(c(NCc3ccccc3)n1)CNCC2 [compound 117, 1-[4-(benzylamino)-5H,6H,7H,8H-pyrido[4,3-d]pyrimidin-2-yl]-2-methyl-1H-indole-4-carboxylic acid] | < 0.1 |
| Cc1cc2c(C(=N)N)cccc2n1-c1nc2c(c(NCc3ccccc3)n1)COCC2 [compound 119] | < 1 |
| Cc1cc2c(-c3nnn[nH]3)cccc2n1-c1nc2c(c(NCc3ccccc3)n1)COCC2 [compound 120, N-benzyl-2-[2-methyl-4-(1H-1,2,3,4-tetrazol-5-yl)-1H-indol-1-yl]-5H,7H,8H-pyrano[4,3-d]pyrimidin-4-amine] | < 0.03 |
| Cc1cc2c(-c3nnn[nH]3)cccc2n1-c1nc2c(c(NCc3ccccc3)n1)CCCC2 [compound 121, N-benzyl-2-[2-methyl-4-(1H-1,2,3,4-tetrazol-5-yl)-1H-indol-1-yl]-5,6,7,8-tetrahydroquinazolin-4-amine] | < 0.03 |
| NC(=O)NCc1cc2c(C(N)=O)cccc2n1-c1nc2c(c(NCc3ccccc3)n1)CCCC2 [compound 127, 1-[4-(benzylamino)-5,6,7,8-tetrahydroquinazolin-2-yl]-2-[(carbamoylamino)methyl]-1H-indole-4-carboxamide] | < 0.1 |
| CC(C)c1cc2c(C(N)=O)cccc2n1-c1nc2c(c(NCc3ccccc3)n1)COCC2 [compound 129, 1-[4-(benzylamino)-5H,7H,8H-pyrano[4,3-d]pyrimidin-2-yl]-2-(propan-2-yl)-1H-indole-4-carboxamide] | < 1 |
| NC(=O)c1cccc2c1cc(C1CC1)n2-c1nc2c(c(NCc3ccccc3)n1)COCC2 [compound 131, 1-[4-(benzylamino)-5H,7H,8H-pyrano[4,3-d]pyrimidin-2-yl]-2-cyclopropyl-1H-indole-4-carboxamide] | < 0.03 |
| Cc1cc2c(C(=O)N(C)C)cccc2n1-c1nc2c(c(NCc3ccccc3)n1)CCCC2 [compound 133, 1-(4-(benzylamino)-5,6,7,8-tetrahydroquinazolin-2-yl)-N,N,2-trimethyl-1H-indole-4-carboxamide] | < 1 |
